Consider 12 compounds from ChEMBL document CHEMBL1201862, “PubChem BioAssay data set” (2004).

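Test compounds were applied to cells in 96-well plates for 48 hours at 5 doses. GI50 marks 50% less growth.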 The source made the active and inactive calls. Cut-off read from the data, not from the text of the source: active = GI50 up to about 1.1 µM and inactive = higher.

What all share (assay): growth of human tumour cells (NCI), 48 h
Experiment [1] has as its system A549.
Experiment [2] concerns BT-549.
Experiment [3] has as its system HOP-62.
Experiment [4] deals with MDA-MB-435.
Experiment [5] has as its system Malme-3M.
Experiment [6] deals with NCI-H226.
Experiment [7] concerns NCI-H23.
The test system of experiment [8] is NCI/ADR-RES.
For experiment [9], the system named is OVCAR-8.
Experiment [10] relates to RPMI-8226.
The test system of experiment [11] is SK-MEL-2.
In experiment [12] the test system is SK-MEL-5.
In experiment [13] the test system is SN12C.
Experiment [14] concerns SW-620.
In experiment [15] the test system is UACC-257.
The subject of experiment [16] is UACC-62.
In experiment [17] the test system is UO-31.
Experiment [18] relates to COLO 205.
Experiment [19] deals with DU-145.

With `O=[N+]([O-])c1cccc2c(/N=N/c3ccc4ccccc4c3O)c(O)cc(S(=O)(=O)O)c12`, the GI50 is 32.7 µM (inactive) in [1]; 74.6 µM (inactive) in [2]; 18.2 µM (inactive) in experiment [3]; 23.8 µM (inactive) in [4]; 14.6 µM (inactive) in experiment [5]; 22.6 µM (inactive) in experiment [6]. Moreover, the GI50 in experiment [7] was 33.3 µM (inactive); in experiment [8] it was 17 µM (inactive); in experiment [9] it was 21.1 µM (inactive); in [10] it was > 100 µM (inactive); in [11], 22.6 µM (inactive); in experiment [12] it was 31 µM (inactive). Moreover, the GI50 was 64.7 µM (inactive) in [13]; 31.6 µM (inactive) in [14]; 31.8 µM (inactive) in experiment [15]; 7.78 µM (inactive) in experiment [16]; 6.03 µM (inactive) in experiment [17].

Regarding `COc1cc(NCCC(=O)O)c2ncccc2c1`, the GI50 in [1], in experiment [2], in [3], in [4], in experiment [5] and in experiment [6] was > 100 µM (inactive) each time. Also, the GI50 in [7] was > 100 µM (inactive); in experiment [8] it was > 100 µM (inactive); in [9], > 100 µM (inactive); in [11], 38.8 µM (inactive); in [12], > 100 µM (inactive); in experiment [13], > 100 µM (inactive). Besides, the GI50 in [14], in [15], in [16] and in experiment [17] was > 100 µM (inactive) throughout.

As for `Cc1ccc([N+](=O)[O-])c2c(NCCC[N+](C)(C)[O-])ccnc12`, the GI50 in experiment [1] is 33.2 µM (inactive); in experiment [18], 34 µM (inactive); in [19] it was 57.8 µM (inactive); in experiment [3] it was 29.3 µM (inactive); in experiment [4], > 100 µM (inactive); in experiment [5] it was 44 µM (inactive). In addition, the GI50 was 98.9 µM (inactive) in experiment [6]; 33.4 µM (inactive) in experiment [7]; > 100 µM (inactive) in experiment [8]; 58.9 µM (inactive) in [9]; 31 µM (inactive) in experiment [10]; 52.6 µM (inactive) in [11]. In addition, the GI50 in experiment [12] is 12.2 µM (inactive); in experiment [13] it was > 100 µM (inactive); in experiment [14], 34.1 µM (inactive); in [15], 29.4 µM (inactive); in experiment [16] it was > 10 µM (inactive); in [17] it was 78.9 µM (inactive).

Turning to `CCN(CC)CCOc1ccc(N2C(=O)c3cccc4cc([N+](=O)[O-])cc(c34)C2=O)cc1`, the GI50 is 0.977 µM (active) in experiment [1]; 10 µM (inactive) in [18]; 10.8 µM (inactive) in [19]; 1.14 µM (inactive) in [3]; 11.5 µM (inactive) in experiment [4]; 13.8 µM (inactive) in experiment [5]. Further, the GI50 is 3.79 µM (inactive) in [6]; 11.6 µM (inactive) in experiment [7]; 16.8 µM (inactive) in [8]; 10.9 µM (inactive) in experiment [9]; 16.3 µM (inactive) in experiment [11]; 12.1 µM (inactive) in experiment [12]. Also, the GI50 in [13] was 17.4 µM (inactive); in experiment [14], 7.48 µM (inactive); in [15], 13.1 µM (inactive); in experiment [17] it was 9.12 µM (inactive).

For `O=C(O)CCCc1nc2c(n1-c1ccccc1)C(=O)c1ccccc1C2=O`, the GI50 was > 100 µM (inactive) in [1]; 52.5 µM (inactive) in experiment [18]; > 100 µM (inactive) in experiment [19]; 21.6 µM (inactive) in experiment [5]; 65.8 µM (inactive) in experiment [7]; > 100 µM (inactive) in experiment [8]. The GI50 is 53.5 µM (inactive) in [9]; 40.7 µM (inactive) in [10]; 97.9 µM (inactive) in experiment [11]; 52.5 µM (inactive) in experiment [13]; > 100 µM (inactive) in experiment [14]; 33.2 µM (inactive) in experiment [15]. Further, the GI50 in [16] is 32.8 µM (inactive); in experiment [17] it was > 100 µM (inactive).

Regarding `Cc1ccc(/C=C2\NC(=S)N(CN3CCOCC3)C2=O)cc1`, the GI50 in experiment [1], in experiment [18], in [19], in experiment [3], in experiment [4] and in experiment [5] was > 100 µM (inactive) each time. Moreover, the GI50 in experiment [6], in experiment [7], in experiment [8], in [9], in experiment [10] and in experiment [11] was > 100 µM (inactive) throughout. For the same compound, the GI50 in [12], in experiment [13], in experiment [14], in [15], in experiment [16] and in experiment [17] was > 100 µM (inactive) in each case.

Regarding `COC(=O)/C=C(\C)CC/C=C(\C)CCC1OC1(C)C` (centres undefined), the GI50 is 12.9 µM (inactive) in experiment [1]; 11.5 µM (inactive) in experiment [2]; 15.5 µM (inactive) in experiment [18]; 15.8 µM (inactive) in experiment [3]; 14.6 µM (inactive) in experiment [5]; 12.1 µM (inactive) in experiment [6]. Further, the GI50 in experiment [7] was 13.2 µM (inactive); in experiment [8] it was 13.9 µM (inactive); in experiment [9], 12.9 µM (inactive); in experiment [11] it was 10.9 µM (inactive); in experiment [12] it was 11.4 µM (inactive); in experiment [13], 10.2 µM (inactive). Moreover, the GI50 in [14] was 13.6 µM (inactive); in experiment [15] it was 12.5 µM (inactive); in [16], 10.1 µM (inactive); in [17] it was 10.7 µM (inactive).

In the case of `O=C1[C@@H]2C[C@@H](O)CN2C(=O)c2ccccc2N1CCCO`, the GI50 in [1], in experiment [19], in [3], in [4], in experiment [6] and in experiment [8] was > 100 µM (inactive) in each case. Further, the GI50 in [9], in experiment [10], in [11], in experiment [13], in experiment [14] and in experiment [15] was > 100 µM (inactive) each time. The GI50 in experiment [16] and in experiment [17] was > 100 µM (inactive) each time.

Consider `COCC#C[C@@]1(O)CCCCC1CC(OC)OC` (some centres undefined), for which the GI50 in [1] is > 100 µM (inactive); in experiment [18], > 100 µM (inactive); in experiment [19], > 100 µM (inactive); in experiment [3], > 100 µM (inactive); in experiment [4] it was 62.7 µM (inactive); in [5] it was 64.9 µM (inactive). Also, the GI50 in [6] was > 100 µM (inactive); in experiment [7], > 100 µM (inactive); in [8] it was > 100 µM (inactive); in experiment [9] it was 51.6 µM (inactive); in experiment [10] it was 32.4 µM (inactive); in experiment [11], > 100 µM (inactive). Moreover, the GI50 was > 100 µM (inactive) in experiment [12]; > 100 µM (inactive) in [13]; > 100 µM (inactive) in experiment [15]; 34.9 µM (inactive) in [16]; > 100 µM (inactive) in [17].

For the compound `C=C1[C@@H](OC(C)=O)[C@H]2[C@@H](OC(C)=O)[C@@](C)(OC(C)=O)C[C@]2(OC(C)=O)C(=O)[C@@H](C)/C=C/C(C)(C)C(=O)C[C@H]1OC(C)=O`, the GI50 in experiment [1] is > 100 µM (inactive); in experiment [18] it was 72.3 µM (inactive); in experiment [19], > 100 µM (inactive); in [3], > 100 µM (inactive); in [4], > 100 µM (inactive); in experiment [5], > 100 µM (inactive). Further, the GI50 is > 100 µM (inactive) in experiment [6]; > 100 µM (inactive) in experiment [7]; 88.1 µM (inactive) in [8]; > 100 µM (inactive) in experiment [9]; > 100 µM (inactive) in experiment [10]; > 100 µM (inactive) in [11]. The GI50 is > 100 µM (inactive) in experiment [12]; > 100 µM (inactive) in experiment [13]; > 100 µM (inactive) in experiment [15]; 83.8 µM (inactive) in experiment [16]; > 100 µM (inactive) in [17].

Take `COC(=O)/C1=C/C=C\C[C@@]2(C)CC(c3ccoc3)OC(=O)[C@@H]2CC[C@H]1C` (some centres undefined): the GI50 in [1], in experiment [2], in experiment [18], in experiment [3], in [5] and in experiment [6] was > 25 µM (inactive) in each case. The GI50 in experiment [7], in experiment [8], in experiment [9], in experiment [11], in [12] and in experiment [13] was > 25 µM (inactive) each time. Besides, the GI50 in experiment [14], in experiment [15], in experiment [16] and in [17] was > 25 µM (inactive) each time.

In the case of `C[C@H](CCC1SC1(C)C)C1CCC2(C)C3=C(CC[C@]12C)[C@@]1(C)CC[C@H](O)C(C)(C)C1CC3` (some centres undefined), the GI50 in [1], in experiment [18], in [3], in [5], in experiment [6] and in experiment [7] was > 100 µM (inactive) each time. For the same compound, the GI50 in experiment [9], in experiment [10], in experiment [11], in [12], in experiment [13] and in experiment [14] was > 100 µM (inactive) throughout. The GI50 in experiment [15], in experiment [16] and in experiment [17] was > 100 µM (inactive) in each case.
